Laboratory results taken from paper PMC6198510, “Switching Between Bicyclic and Linear Peptides — The Sulfhydryl-Specific Linker TPSMB Enables Reversible Cyclization of Peptides” (Frontiers in Chemistry, 2018).
Where two headings read alike, the source gives them in different places. Starred links: 1 amine or outer side, 2 acyl side, 3 side chain; linkers in the order of their positions; H or OH if unused. Positions of bridges follow the written chain, without caps; N, C: chain ends. Residues, ends and D or L forms follow the SMILES beside them. Benzene(1,3,5-(CH2S)3) = c1c(CS[*:1])cc(CS[*:3])cc1CS[*:2]

Assays:
[1] = target: T1, JNK3 (Homo sapiens, UniProt P53779); assay: competitive fluorescence polarization assay (displacement of PIT0105006); format: binding; conditions: competitive FP
T1 construct: 39-402 was performed as described in literature; made in house
T1 sequence (P53779 39-402 limits assumed): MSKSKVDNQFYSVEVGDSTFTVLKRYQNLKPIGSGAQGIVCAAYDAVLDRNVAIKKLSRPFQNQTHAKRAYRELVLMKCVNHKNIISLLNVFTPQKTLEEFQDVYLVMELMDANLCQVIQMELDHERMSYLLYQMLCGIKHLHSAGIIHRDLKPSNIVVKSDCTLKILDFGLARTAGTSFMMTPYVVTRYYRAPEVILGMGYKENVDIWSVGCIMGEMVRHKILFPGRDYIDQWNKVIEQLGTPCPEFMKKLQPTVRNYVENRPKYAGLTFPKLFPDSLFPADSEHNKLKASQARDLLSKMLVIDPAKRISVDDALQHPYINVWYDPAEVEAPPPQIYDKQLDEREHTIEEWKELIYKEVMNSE
Procedure: (§1) VII: Expression and Purification of JNK3
(§2) The expression and purification of JNK3339-402 was performed as described in literature. [Lange, A.; Günther, M.; Büttner, F. M.; Zimmermann, M. O.; Heidrich, J.; Hennig, S.; Zahn, S.; Schall, C.; Sievers-Engler, A.; Ansideri, F.; et al. Targeting the Gatekeeper MET146 of C-Jun N-Terminal Kinase 3 Induces a Bivalent Halogen/Chalcogen Bond. Journal of the American Chemical Society 2015, 137
(§3) VIII: Fluorescence polarization assay
Fluorescence polarization assays were performed in 96-wellplates (black, non-binding, Greiner bio-one). The measurements were performed in a CLARIOstar microplate reader (BMG Labtech, Ortenberg, Germany; excit. filter: 480 nm and an emiss. filter: 530 nm). Purified JNK3 was diluted in buffer (HEPES-Buffer, 25 mM) containing additional 0.1 mg/mL BSA. […]
The KD was obtained by curve fit based on eleven protein concentrations. For competitive binding fluorescence polarization experiments, sample concentrations between 200 μM and 10 nM were measured in triplicates. A steady concentration of 10 nM was used for JNK3 and of 5 nM for the fluorescein-labelled compound PIT0105006 (KD= 3.0 ± 0.2 nM). [Ansideri, F.; Lange, A; El-Gokha […]
A.; Boeckler F. M.; Koch, P. Fluorescence polarization-based assays for detecting compounds binding […]
503, 28-40.]Control measurements were performed with PIT0104002 (concentration between 10 μM […]
(§4) For all experiments DMSO (>99.5% (GC)) was […]
(§5) consistently used with a steady concentration of 5% (v/v). Before each measurement, the plates were shaked at 350 rpm for 30 min at room temperature on a plate shaker (Eppendorf MixMate). Before the measurement, the plates were incubated within the microplate reader for 2 min at 25°C and the focal height was adjusted to yield the optimal fluorescence intensity. Measured data was plotted and KD values were obtained by curve fitting of a standard four parameter logistic nonlinear regression model using the program Origin 9.1.
IX: Fluorescence polarization data […]
Table S3: Overview of the results obtained in competitive fluorescence polarization assays. a Conversion of obtained IC50 mean values to KI were performed using a web-based application available at: http://sw16.im.med.umich.edu/software/calc_ki/ (19.07.2018) [Cer, R. Z., Mudunuri, U., Stephens, R., & Lebeda, F. J. (2009). IC50-to-Ki: a web-based tool for converting IC50 to Ki values for inhibitors of enzyme activity and ligand binding. Nucleic Acids Research, 37(Web Server issue), W441–W445], SE = standard error from curve fit. […]

[2] = target: T1, JNK3; assay: direct titration fluorescence polarization assay; format: binding; conditions: direct titration FP
Procedure: as §1, §2, §3
Fluorescence polarization assays were performed in 96-wellplates (black, non-binding, Greiner bio-one). The measurements were performed in a CLARIOstar microplate reader (BMG Labtech, Ortenberg, Germany; excit. filter: 480 nm and an emiss. filter: 530 nm). Purified JNK3 was diluted in buffer (HEPES-Buffer, 25 mM) containing additional 0.1 mg/mL BSA. In the case of direct binding fluorescence polarization experiments, each protein concentration with a maximum concentration between 5 μM and 200 μM and a minimum concentration between 0.08 nM – 0.76 nM was measured in triplicates. The KD was obtained by curve fit based on eleven protein concentrations. […]
as §4, §5
IX: Fluorescence polarization data
Table S2: Overview of the results obtained in direct titration fluorescence polarization assays.
SE = standard error from curve fit, SD = standard deviation from experiments 1-3. […]
Nucleic Acids Research, 37(Web Server issue), W441–W445], SE = standard error from curve fit. […]

[3] = converted from mean IC50 with web-based IC50-to-Ki tool, read-out: KI
[4] = unlabeled TPSMB bicyclic peptide displacing 5 nM PIT0105006 from 10 nM JNK3, 200 μM-10 nM in triplicates, 5% DMSO, 25°C, experiment 1, read-out: IC50 Exp. 1
[5] = unlabeled TPSMB bicyclic peptide, mean of experiments 1-2 (JK20: one experiment), read-out: Mean IC50
[6] = fluorescein-labeled TPSMB-modified bicyclic peptide, JNK3 titrated, eleven protein concentrations in triplicates, 25 mM HEPES, 0.1 mg/mL BSA, 5% DMSO, 25°C, mean of experiments 1-3 (JK16, JK18: one experiment), read-out: Mean KD

Row | SMILES | Ki [1, 3] [µM] | IC50 [1, 4] [µM] | IC50 [1, 5] [µM] | Kd [2, 6] [µM] | Kd ([2]; fluorescein-labeled unmodified linear peptide, without cyclisation by TPSMB, curve fit (SE: 250 μM), read-out: KD of linear peptide) [µM] | Ki ([1]; single experiment with IC50 = 15.6 μM, read-out: KI (Figure 5B)) [µM] | IC50 ([1]; unlabeled TPSMB bicyclic peptide displacing 5 nM PIT0105006 from 10 nM JNK3, experiment 2, read-out: IC50 Exp. 2) [µM]
1 | CC[C@H](C)[C@@H]1NC(=O)[C@H](CCC(=O)O)NC(=O)[C@H](CC(=O)O)NC(=O)[C@H](Cc2c[nH]cn2)NC(=O)[C@@H](NC(=O)[C@H](C)N)CSSCc2cc3cc(c2)CSSC[C@H](NC(=O)[C@H]([C@@H](C)O)NC(=O)[C@H](Cc2c[nH]c4ccccc24)NC1=O)C(=O)N[C@@H](C(C)C)C(=O)N[C@@H](Cc1ccccc1)C(=O)N[C@@H](Cc1c[nH]cn1)C(=O)N[C@@H](CC(=O)O)C(=O)N[C@@H](CCC(=O)O)C(=O)N[C@@H](Cc1ccccc1)C(=O)N[C@H](C(=O)NCC(N)=O)CSSC3 [JK20-TPSMB] (H-ACHDEIWTCVFHDEFCG-NH2; linker 2-9-16 via Benzene(1,3,5-(CH2S)3)) | 6.5 | 27.8 | 27.8 |  |  |  | 
2 | CSCC[C@H](NC(=O)[C@H](CS)NC(=O)[C@H](Cc1ccc(O)cc1)NC(=O)[C@H](CCC(=O)O)NC(=O)[C@H](Cc1c[nH]c2ccccc12)NC(=O)[C@H](CCC(N)=O)NC(=O)[C@H](CC(=O)O)NC(=O)[C@H](CC(=O)O)NC(=O)[C@H](CS)NC(=O)[C@H](C)N)C(=O)N[C@@H](Cc1ccccc1)C(=O)N[C@@H](CC(=O)O)C(=O)N[C@@H](Cc1ccc(O)cc1)C(=O)N[C@@H](CCCNC(=N)N)C(=O)N[C@@H](Cc1c[nH]c2ccccc12)C(=O)N[C@@H](CS)C(=O)NCC(N)=O [JK1] (H-ACDDQWEYCMFDYRWCG-NH2) | 6.6 |  | 28.4 | 1.7 ± 0.8 | ~390 |  | 
3 | CSCC[C@@H]1NC(=O)[C@@H]2CSSCc3cc(cc(c3)CSSC[C@@H](C(=O)NCC(N)=O)NC(=O)[C@H](Cc3c[nH]c4ccccc34)NC(=O)[C@H](CCCNC(=N)N)NC(=O)[C@H](Cc3ccc(O)cc3)NC(=O)[C@H](CC(=O)O)NC(=O)[C@H](Cc3ccccc3)NC1=O)CSSC[C@H](NC(=O)[C@H](C)N)C(=O)N[C@@H](CC(=O)O)C(=O)N[C@@H](CC(=O)O)C(=O)N[C@@H](CCC(N)=O)C(=O)N[C@@H](Cc1c[nH]c3ccccc13)C(=O)N[C@@H](CCC(=O)O)C(=O)N[C@@H](Cc1ccc(O)cc1)C(=O)N2 [JK1-TPSMB] (H-ACDDQWEYCMFDYRWCG-NH2; linker 2-9-16 via Benzene(1,3,5-(CH2S)3)) | 6.6 | 15.6 |  | 1.7 ± 0.8 |  | 3.6 | 41.3
4 | CC(C)C[C@@H]1NC(=O)[C@H](CC(=O)O)NC(=O)[C@H](CCC(=O)O)NC(=O)[C@@H]2CSSCc3cc(cc(c3)CSSC[C@@H](C(=O)NCC(N)=O)NC(=O)[C@H](CC(=O)O)NC(=O)[C@H](CC(=O)O)NC(=O)[C@H](CC(N)=O)NC1=O)CSSC[C@H](NC(=O)[C@H](C)N)C(=O)N[C@@H](Cc1ccccc1)C(=O)N[C@@H](Cc1c[nH]c3ccccc13)C(=O)N[C@@H](Cc1c[nH]c3ccccc13)C(=O)N[C@@H](Cc1ccccc1)C(=O)NCC(=O)N[C@@H](C)C(=O)N2 [JK10-TPSMB] (H-ACFWWFGACEDLNDDCG-NH2; linker 2-9-16 via Benzene(1,3,5-(CH2S)3)) | 5.5 |  | 23.6 |  |  |  | 
